What was measured:
C. metallidurans CH34 = experiment: Minimal Inhibitory Concentration (MIC) of Na3As04, wild type C. metallidurans CH34; assay type: cell-based, Cupriavidus metallidurans; conditions: Na3As04 0-1,000 mM, 28° C., 48 h, OD600
Description: After incubation at 28° C. for 48 h, the bacterial growth was measured by reading the absorbance at 600 nm (OD600) in a spectrophotometer.
The MIC of C. metallidurans CH34 and C. metallidurans CH34/pCM-As cells against As5+ ions were also studied. […] The MIC of Na3As04 for C. metallidurans CH34/pCM-As was above 1,000 mM, indicating an increase in survivability to As5+ ions above 100% (FIG. 11B). The bacterial growth for the MIC assays was quantified by Absorbance reading at 600 nm (FIG. 11C). The assays were performed in triplicate, showing similar results.

E. coli UT5600 = experiment: Minimal Inhibitory Concentration (MIC) of Na3As04, wild type E. coli UT5600; assay type: cell-based, Escherichia coli; conditions: Na3As04 0-50 mM, 28° C., 48 h, OD600
Description: (§1) Panel C illustrates the comparison between the growth levels of E. coli wild type and recombinant cells in the presence of different concentrations of Na3As04 ranging from 0-50 mM. After incubation at 28° C. for 48 h, the bacterial growth was measured by reading the absorbance at 600 nm (OD600) in a spectrophotometer.
(§2) To find out whether the recombinant E. coli UT5600/pCM-As lineage had increased resistance to arsenate ions, as compared to the UT5600 lineage from which it is derived, the MIC against Na3As04 of each of the lineages was determined.
(§3) The final bacterial growth in different Na3As04 concentrations was quantified by Absorbance reading at 600 ηm (FIG. 10C). The assays were performed in triplicate, showing similar results.

E. coli UT5600/pCM-As = experiment: Minimal Inhibitory Concentration (MIC) of Na3As04, recombinant E. coli UT5600/pCM-As; assay type: cell-based, Escherichia coli; conditions: Na3As04 0-50 mM, 28° C., 48 h, OD600
Description: as §1, §2, §3

sodium arsenate [Na3As04]
Minimum Inhibitory Concentration (MIC) (C. metallidurans CH34): 500 mM
Minimum Inhibitory Concentration (MIC) (E. coli UT5600): 25 mM
Minimum Inhibitory Concentration (MIC) (E. coli UT5600/pCM-As): 50 mM
